From US11965219B2, “Process and apparatus for reduction in microbial growth in solutions of sugars extracted from waste materials” (UNIVERSITY OF LEEDS, priority 2018, dated 2024)

System: microbial growth in solutions of sugar
Assay: Microbial contamination control procedure: dissolved oxygen and pH monitoring of solutions of sugars after adding a sterilisation agent
Method: The process described is based upon the Fiberight industrial scale process, modified for a 1 litre reaction vessel. The amount of organic substrate used in the process is dependent on the required total solids (TS) content of the process. Typically, TS will be between 5-25%. TS is calculated using the required reaction mass and the solids content of the organic substrate, which is typically between 10-70%. (For a reaction mass of 1 kg, with a required TS of 8% (w/w), using organic substrate with a solids content of 32% (w/w), the amount of organic substrate needed for the process is 250 g). The organic substrate is sterilised in an autoclave at 125° C. for 1 hour immediately prior to use.
The reaction vessel is sterilised prior to use by filling with […] and stirring for 1 hour. The ethanol is then drained and the heating jacket set to 50° C. prior to addition of the reaction components (water, organic substrate, and enzyme).
The organic substrate is added to a preheated reaction vessel (50° C.) in one portion followed by sterilised water (the mass of water required=total reaction mass−mass of organic substrate) and stirred at between 200-600 RPM, depending on TS (higher TS requires a higher RPM to ensure thorough mixing). […] DO readings are taken throughout the process and are typically between 3-8 mg/L if no contamination is present. […] Typically this stops after T=3 hours and maintains linear readings. If contamination occurs the DO reading can drop to 0 mg/L, which typically happens between T=5-8 hours. […]
Several sterilisation agents have been tested to determine their effectiveness in controlling microbial growth in solutions of sugar. The sterilisation agents were either introduced at T=0 or at the point that microbial growth is observed, which can be measured by the DO sensor. Typically, contamination can be said to occur when the DO reading starts to drop exponentially, eventually reaching 0 mg/L if no sterilisation agent is added. In these tests, software was used to monitor the DO readings and trigger the addition of an antimicrobial. […]

[O][Cl+][O-] [chlorine dioxide]
dissolved oxygen and pH levels / microbial growth (0.05 wt % added at T=5 hrs 45 mins, T=50 hrs 30 mins and T=73 hrs 30 mins, FIG. 7): stabilise dissolved oxygen and pH levels, thereby preventing further microbial growth
dissolved oxygen and pH levels / microbial growth (0.35 wt % added at T=8 hrs 45 mins in a single aliquot, FIG. 6): stabilise dissolved oxygen and pH levels, thereby preventing further microbial growth
pH drop (evidence of lactic acid production) (added in response to the drop in dissolved oxygen, FIGS. 6 and 7): prevented
